Assays:
[1] = tested on: sleep-deprived healthy volunteers; experiment: Karolinska Sleepiness Scale (KSS) in sleep-deprived healthy volunteers; format: in vivo, human; conditions: for KSS Sleepy/Alert LS Mean / KSS Sleepy/Alert LS Mean Difference vs Placebo Estimate: M: Modafinil 300 mg
Method: (§1) During the day before dosing on Day 1, participants were administered the KSS at scheduled timepoints. A practice MWT session was performed on Day 1 treatment period 1 (only once during the entire study) to familiarize subjects with the procedures. Study drug was administered in the clinic in the evening on Day 1 of each treatment period. Subjects underwent the MWT and KSS at specified timepoints after the start of the infusion. Subjects were required to stay awake between the MWT tests. Following completion of the IV infusion on Day 2, subjects underwent an additional MWT test. When the final MWT test and cognitive testing were completed, subjects were allowed to sleep (recovery sleep) for approximately 6 hours. PSG recording was collected during this time. Subjects were discharged from the unit after completion on Day 2 with continuing actigraphy upon discharge (to begin on Day −6 before the next treatment period). The interval between each subsequent treatment period was at least 7 days to ensure that the subject's circadian rhythm had returned to a normal cycle. Subject's vital signs, including BP, were monitored during the dosing and testing period. Blood samples for determination of Compound A plasma concentrations were collected at specified timepoints on Days 1 and 2 of each treatment period. Subjects completed the Columbia-Suicide Severity Rating Scale (C-SSRS) during screening, before study drug administration, and before discharge on Day 2 of each treatment period.
Secondary endpoints: • PK parameters calculated from plasma concentrations of Compound A. • Scores for sleepiness on the Karolinska Sleepiness Scale (KSS).
The secondary efficacy endpoint was sleepiness/alertness as assessed by KSS at 14, 10, 6, and 2 hours predose (approximately between 7:45 AM to 7:45 PM); 2, 2.75, 4.75, 6.75, and 8.75 hours post infusion start (approximately between mid-night to 7 AM in the morning); and at 1.75 hours post infusion end. A higher value indicates more sleepiness, a lower value indicates more alertness. Prior to infusion, there were no statistically significant differences at any time point of observation in KSS score for Compound A 44 and 112 mg treatments when compared to placebo. […] On the average, for modafinil and Compound A 44 and 112 mg, there were about 1.6 to 3.7 points increase in the KSS postdose/the infusion start, relative to that prior to dosing during the daytime. However, for placebo, the increase in the average KSS is 4.9.

[2] = tested on: sleep-deprived healthy volunteers; experiment: Safety/tolerability of a single dose in sleep-deprived healthy adults; format: in vivo, human; conditions: Modafinil 300 mg; moderate intensity
Method: as §1
Safety endpoints: adverse events (AEs), physical examinations, vital signs, 12-lead electrocardiograms (ECGs), clinical laboratory evaluations (hematology, blood chemistry, and urinalysis), drug-liking visual analogue scale, and Profile of Mood States.

[3] = DELTA: AVERAGE POST - AVERAGE PRIOR
[4] = Modafinil 300 mg, 1.75 HOURS POST INFUSION END
[5] = Modafinil 300 mg, 2 HOURS PREDOSE
[6] = Modafinil 300 mg, 2.75 HOURS POST INFUSION START
[7] = Modafinil 300 mg, 4.75 HOURS POST INFUSION START
[8] = Modafinil 300 mg, 6 HOURS PREDOSE
[9] = Modafinil 300 mg, 6.75 HOURS POST INFUSION START
[10] = Modafinil 300 mg, 8.75 HOURS POST INFUSION START
[11] = Modafinil 300 mg, 10 HOURS PREDOSE
[12] = Modafinil 300 mg, 14 HOURS PREDOSE

Compound: NC(=O)C[S+]([O-])C(c1ccccc1)c1ccccc1 (stereo not shown) [Modafinil, modafinil, reference compound]
- KSS Sleepy/Alert LS Mean ([1]; 1.75 HOURS POST INFUSION END): 7.16
- KSS Sleepy/Alert LS Mean Difference vs Placebo Estimate ([1]; 1.75 HOURS POST INFUSION END): −0.99
- KSS Sleepy/Alert LS Mean ([1]; 2 HOURS PREDOSE): 3.32
- KSS Sleepy/Alert LS Mean Difference vs Placebo Estimate ([1]; 2 HOURS PREDOSE): −0.58
- KSS Sleepy/Alert LS Mean ([1]; 2.75 HOURS POST INFUSION START): 3.69
- KSS Sleepy/Alert LS Mean Difference vs Placebo Estimate ([1]; 2.75 HOURS POST INFUSION START): −3.16
- KSS Sleepy/Alert LS Mean ([1]; 4.75 HOURS POST INFUSION START): 4.32
- KSS Sleepy/Alert LS Mean Difference vs Placebo Estimate ([1]; 4.75 HOURS POST INFUSION START): −3.83
- KSS Sleepy/Alert LS Mean ([1]; 6 HOURS PREDOSE): 2.58
- KSS Sleepy/Alert LS Mean Difference vs Placebo Estimate ([1]; 6 HOURS PREDOSE): −0.22
- KSS Sleepy/Alert LS Mean ([1]; 6.75 HOURS POST INFUSION START): 5.79
- KSS Sleepy/Alert LS Mean Difference vs Placebo Estimate ([1]; 6.75 HOURS POST INFUSION START): −2.71
- KSS Sleepy/Alert LS Mean ([1]; 8.75 HOURS POST INFUSION START): 6.69
- KSS Sleepy/Alert LS Mean Difference vs Placebo Estimate ([1]; 8.75 HOURS POST INFUSION START): −1.65
- KSS Sleepy/Alert LS Mean ([1]; 10 HOURS PREDOSE): 2.32
- KSS Sleepy/Alert LS Mean Difference vs Placebo Estimate ([1]; 10 HOURS PREDOSE): −0.18
- KSS Sleepy/Alert LS Mean ([1]; 14 HOURS PREDOSE): 2.79
- KSS Sleepy/Alert LS Mean Difference vs Placebo Estimate ([1]; 14 HOURS PREDOSE): −0.26
- KSS Sleepy/Alert LS Mean ([1]; AVERAGE POST INFUSION START (2.75, 4.75, 6.75 AND 8.75 HOURS)): 5.12
- KSS Sleepy/Alert LS Mean ([1]; AVERAGE PRIOR TO INFUSION START (14, 10, 6, 2 HOURS PREDOSE)): 2.75
- KSS Sleepy/Alert LS Mean [1, 3]: 2.37
- KSS Sleepy/Alert LS Mean Difference vs Placebo Estimate [1, 3]: −2.53
- Difference between average KSS score post and prior to infusion start, LS Mean (SE) ([1]; Modafinil 300 mg): 2.37 (0.323)
- KSS Max [1, 4]: 9
- KSS Mean (SD) [1, 4]: 7.2 (1.80)
- KSS Median [1, 4]: 8.0
- KSS Min [1, 4]: 3
- KSS Max [1, 5]: 6
- KSS Mean (SD) [1, 5]: 3.3 (1.20)
- KSS Median [1, 5]: 3.0
- KSS Min [1, 5]: 1
- KSS Max [1, 6]: 6
- KSS Mean (SD) [1, 6]: 3.7 (1.63)
- KSS Median [1, 6]: 4.0
- KSS Min [1, 6]: 1
- KSS Max [1, 7]: 7
- KSS Mean (SD) [1, 7]: 4.3 (1.89)
- KSS Median [1, 7]: 4.0
- KSS Min [1, 7]: 1
- KSS Max [1, 8]: 7
- KSS Mean (SD) [1, 8]: 2.6 (1.35)
- KSS Median [1, 8]: 2.0
- KSS Min [1, 8]: 1
- KSS Max [1, 9]: 8
- KSS Mean (SD) [1, 9]: 5.8 (2.12)
- KSS Median [1, 9]: 6.0
- KSS Min [1, 9]: 2
- KSS Max [1, 10]: 9
- KSS Mean (SD) [1, 10]: 6.7 (1.92)
- KSS Median [1, 10]: 7.0
- KSS Min [1, 10]: 3
- KSS Max [1, 11]: 5
- KSS Mean (SD) [1, 11]: 2.3 (1.11)
- KSS Median [1, 11]: 2.0
- KSS Min [1, 11]: 1
- KSS Max [1, 12]: 5
- KSS Mean (SD) [1, 12]: 2.8 (1.08)
- KSS Median [1, 12]: 3.0
- KSS Min [1, 12]: 1
- KSS score ([1]; Modafinil 300 mg, 1.75 hours post infusion end): 7.16
- Drug-related TEAE of liver function test increased, number of subjects [2]: 1 subject

Reference: US20220331303A1, “USE OF AN OREXIN 2 RECEPTOR AGONIST FOR THE TREATMENT OF EXCESSIVE SLEEPINESS” (Takeda Pharmaceutical Company Limited, priority 2019, published 2022)
